Tested on: MDA-MB-436 cells
Assay: Growth inhibition assay against BRCA mutant human breast cancer MDA-MB-436 cell line (CCK-8, 7 days)
Format: cell-based

Point of comparison: `O=C(NC1CC1)c1ccc(N2CCN(Cc3ccc4c(c3)[nH]c(=O)c3cccn34)CC2)c(Cl)n1` [Example 61, 7-((4-(2-chloro-6-(cyclopropylcarbamoyl)pyridin-3-yl)piperazin-1-yl)methyl)pyrrolo[1,2-a]quinoxalin-4(5H)-one], IC50 0.98 nM. Against it:
- CCNC(=O)c1ccc(N2CCN(Cc3ccc4c5c(c(=O)[nH]c4c3)CCC5)CC2)c(Cl)n1 [Example 50, 7-((4-(2-chloro-6-(ethylcarbamoyl)pyridin-3-yl)piperazin-1-yl)methyl)-1,2,3,5-tetrahydro-4H-cyclopenta[c]quinolin-4-one] — 5.8-fold higher, 5.7 nM
- CNC(=O)c1ccc(N2CCN(Cc3cc(F)c4c(c3)[nH]c(=O)n3ccnc43)CC2)c(C)n1 [Example 96, 8-((4-(2-methyl-6-(methylcarbamoyl)pyridin-3-yl)piperazin-1-yl)methyl)-10-fluoroimidazo[1,2-c]quinazolin-5(6H)-one] — 2-fold higher, 1.93 nM
- CNC(=O)c1ccc(N2CCN(Cc3ccc4c5c(c(=O)[nH]c4c3)COC5)CC2)cn1 [Example 1, 7-((4-(6-(methylcarbamoyl)pyridin-3-yl)piperazin-1-yl)methyl)-3,5-dihydrofuro[3,4-c]quinolin-4(1H)-one] — 170-fold higher, 170 nM
- CNC(=O)c1ccc(N2CCN(Cc3ccc4c(c3)[nH]c(=O)c3cccn34)CC2)c(F)n1 [Example 34, 7-((4-(2-fluoro-6-(methylcarbamoyl)pyridin-3-yl)piperazin-1-yl)methyl)pyrrolo[1,2-a]quinoxalin-4(5H)-one] — within 1.5-fold, 0.75 nM
- Cc1nc(C(=O)NC2CC2)ccc1N1CCN(Cc2ccc3c4c(c(=O)[nH]c3c2)COC4)CC1 [Example 63, 7-((4-(2-methyl-6-(cyclopropylcarbamoyl)pyridin-3-yl)piperazin-1-yl)methyl)-3,5-dihydrofuro[3,4-c]quinolin-4(1H)-one] — 3.4-fold higher, 3.32 nM
- CNC(=O)c1ccc(N2CCN(Cc3cc(F)c4c(c3)[nH]c(=O)c3cccn34)CC2)c(Cl)n1 [Example 42, 7-((4-(2-chloro-6-(methylcarbamoyl)pyridin-3-yl)piperazin-1-yl)methyl)-9-fluoropyrrolo[1,2-a]quinoxalin-4(5H)-one] — within 1.5-fold, 0.93 nM
- Cc1nc(C(=O)NC2CC2)ccc1N1CCN(Cc2cc(F)c3c4c(c(=O)[nH]c3c2)CCC4)CC1 [Example 81, 7-((4-(2-methyl-6-(cyclopropylcarbamoyl)pyridin-3-yl)piperazin-1-yl)methyl)-9-fluoro-1,2,3,5-tetrahydro-4H-cyclopenta[c]quinolin-4-one] — 4.8-fold higher, 4.67 nM
- CNC(=O)c1ccc(N2CCN(Cc3cc(F)c4c(c3)[nH]c(=O)c3ccnn34)CC2)cn1 [Example 97, 7-((4-(6-(methylcarbamoyl)pyridin-3-yl)piperazin-1-yl)methyl)-9-fluoropyrazolo[1,5-a]quinoxalin-4(5H)-one] — 110-fold higher, 111 nM
- CNC(=O)c1ccc(N2CCN(Cc3cc(Cl)c4c(c3)[nH]c(=O)c3ccnn34)CC2)c(C)n1 [Example 46, 7-((4-(2-methyl-6-(methylcarbamoyl)pyridin-3-yl)piperazin-1-yl)methyl)-9-chloropyrazolo[1,5-a]quinoxalin-4(5H)-one] — 2.3-fold higher, 2.27 nM
- CNC(=O)c1ccc(N2CCN(Cc3cc(F)c4c5c(c(=O)[nH]c4c3)CCC5)CC2)c(C)n1 [Example 79, 7-((4-(2-methyl-6-(methylcarbamoyl)pyridin-3-yl)piperazin-1-yl)methyl)-9-fluoro-1,2,3,5-tetrahydro-4H-cyclopenta[c]quinolin-4-one] — within 1.5-fold, 1.04 nM
- O=C(NC1CC1)c1ccc(N2CCN(Cc3cc(F)c4c5c(c(=O)[nH]c4c3)CCC5)CC2)c(F)n1 [Example 82, 7-((4-(2-fluoro-6-(cyclopropylcarbamoyl)pyridin-3-yl)piperazin-1-yl)methyl)-9-fluoro-1,2,3,5-tetrahydro-4H-cyclopenta[c]quinolin-4-one] — 3.7-fold higher, 3.66 nM
- CNC(=O)c1ccc(N2CCN(Cc3cc4[nH]c(=O)c5ccnn5c4cc3F)CC2)c(C)n1 [Example 93, 7-((4-(2-methyl-6-(methylcarbamoyl)pyridin-3-yl)piperazin-1-yl)methyl)-8-fluoropyrazolo[1,5-a]quinoxalin-4(5H)-one] — 5.8-fold higher, 5.68 nM
- CNC(=O)c1ccc(N2CCN(Cc3ccc4c(c3)[nH]c(=O)n3ccnc43)CC2)c(C)n1 [Example 31, 8-((4-(2-methyl-6-(methylcarbamoyl)pyridin-3-yl)piperazin-1-yl)methyl)imidazo[1,2-c]quinazolin-5(6H)-one] — 2.1-fold higher, 2.08 nM
- CNC(=O)c1ccc(N2CCN(Cc3ccc4c(c3)[nH]c(=O)n3nccc43)CC2)c(C)n1 [Example 118, 8-((4-(2-methyl-6-(methylcarbamoyl)pyridin-3-yl)piperazin-1-yl)methyl)pyrazolo[1,5-c]quinazolin-5(6H)-one] — 11-fold higher, 10.7 nM
- CNC(=O)c1ccc(N2CCN(Cc3cc(F)c4c(c3)[nH]c(=O)c3cc(C)nn34)CC2)c(C)n1 [Example 75, 7-((4-(2-methyl-6-(methylcarbamoyl)pyridin-3-yl)piperazin-1-yl)methyl)-9-fluoro-2-methylpyrazolo[1,5-a]quinoxalin-4(5H)-one] — 3.4-fold higher, 3.31 nM
- Cc1nc(C(=O)O)ccc1N1CCN(Cc2cc(F)c3c(c2)[nH]c(=O)c2ccnn23)CC1 [Example 116, 7-((4-(2-methyl-6-carboxypyridin-3-yl)piperazin-1-yl)methyl)-9-fluoropyrazolo[1,5-a]quinoxalin-4(5H)-one] — higher, > 100 nM
- CNC(=O)c1ccc(N2CCN(Cc3ccc4c(c3)[nH]c(=O)c3cccn34)CC2)cn1 [Example 65, 7-((4-(6-(methylcarbamoyl)pyridin-3-yl)piperazin-1-yl)methyl)pyrrolo[1,2-a]quinoxalin-4(5H)-one] — within 1.5-fold, 1.12 nM
- CNC(=O)c1ccc(N2CCN(Cc3ccc4c(c3)[nH]c(=O)c3c(Cl)cnn34)CC2)c(F)n1 [Example 99, 7-((4-(2-fluoro-6-(methylcarbamoyl)pyridin-3-yl)piperazin-1-yl)methyl)-3-chloropyrazolo[1,5-a]quinoxalin-4(5H)-one] — 1.8-fold lower, 0.54 nM
- CNC(=O)c1ccc(N2CCN(Cc3ccc4c5c(c(=O)[nH]c4c3)CCC5)CC2)c(C)n1 [Example 17, 7-((4-(2-methyl-6-(methylcarbamoyl)pyridin-3-yl)piperazin-1-yl)methyl)-1,2,3,5-tetrahydro-4H-cyclopenta[c]quinolin-4-one] — 2.6-fold higher, 2.59 nM
- O=C(NC1CC1)c1ccc(N2CCN(Cc3ccc4c(c3)[nH]c(=O)c3cccn34)CC2)c(F)n1 [Example 60, 7-((4-(2-fluoro-6-(cyclopropylcarbamoyl)pyridin-3-yl)piperazin-1-yl)methyl)pyrrolo[1,2-a]quinoxalin-4(5H)-one] — 1.6-fold lower, 0.63 nM
- CNC(=O)c1ccc(N2CCN(Cc3cc(F)c4c(c3)[nH]c(=O)c3ccnn34)CC2)c(Cl)n1 [Example 45, 7-((4-(2-chloro-6-(methylcarbamoyl)pyridin-3-yl)piperazin-1-yl)methyl)-9-fluoropyrazolo[1,5-a]quinoxalin-4(5H)-one] — 2.3-fold higher, 2.24 nM
- CNC(=O)c1ccc(N2CCN(Cc3ccc4c(c3)[nH]c(=O)c3cncn34)CC2)c(Cl)n1 [Example 39, 7-((4-(2-chloro-6-(methylcarbamoyl)pyridin-3-yl)piperazin-1-yl)methyl)imidazo[1,5-a]quinoxalin-4(5H)-one] — 3.6-fold higher, 3.56 nM
